*: point of attachment. 5FAM = O=C1OC2(c3ccc(O)cc3Oc3cc(O)ccc32)c2ccc(C(=O)*)cc21; TQ2 = quencher
How the values were obtained:
[1] = test system: MMP14 in the HT1080 culture supernatants and the culture medium samples; experiment: Evaluation of MMP14 activity of HT1080 culture supernatants, culture media and recovered liquids (exoEasy, qEV) with 96-well plate; assay type: biochemical, Human; settings: for Fluorescence change: after 2 hours; for change in fluorescence intensity after 2 hours: reporter 2.5 μM, 30° C.
Experimental: The MMP14 activity was evaluated with a 96-well plate (manufactured by Thermo Fisher Scientific Inc., model number: 137101). […] For measurement wavelengths, an excitation wavelength of 485±20 nm and a fluorescence wavelength of 528±20 nm were used.
Human fibrosarcoma HT1080 cells (KAC Co., Ltd.) were cultured in three kinds of cell culture media described later. In addition, 100 mm cell culture Dish (Nunclon Delta Surface) (manufactured by Thermo Fisher Scientific Inc.) was used as a cell culture container.
Each of the culture supernatants was recovered from each of the dishes in a centrifuge tube, and centrifuged at 2,000×g for 10 minutes at 4° C. Each of the supernatants after the centrifugation was recovered in a fresh container with a small amount of the culture medium remaining so as not to incorporate the precipitated cells. Each of the culture supernatants was filtered through a syringe with a 0.22 μm filter (manufactured by Merck KGaA) so that contaminants such as cell fragments were removed. After that, the filtrate was recovered in a fresh container, and stored at 4° C.
From each of the HT1080 culture supernatants described in the section “(Recovery of Culture Supernatant)”, 100 μL of each of the supernatants after centrifugation and 100 μL of each of the supernatants after filtration through a 0.22 μm filter were each aliquoted, and the buffer (4) was added to the aliquots to provide 1 mL of solutions. The concentration of each of the solutions is 1/10 of the concentration of each of the HT1080 culture supernatants.
In addition, for detection of MMP14 activity, 1 mM Custom #1 was diluted with the buffer (4) to prepare a 5 μM MMP14 detection solution.
50 μL of the MMP14 detection solution was added to 50 μL of each of the samples, a reaction was performed at 30° C., and MMP14 activity was evaluated.
Extracellular vesicles were recovered from 3 mL of each of the recovered culture supernatants with exoEasy Maxi Kit. In this case, the recovery was performed according to the protocol included in the kit. From 3 mL of each of the culture supernatants, 450 μL of each of recovered liquids was obtained. Each of the recovered liquids has a concentration 6.67 times the original concentration of each of the culture supernatants. Each of the recovered liquids was diluted 66.7-fold to prepare 100 μL of a sample at 1/10 of the original concentration of each of the culture supernatants.
Extracellular vesicles were recovered from 3 mL of each of the recovered culture supernatants with qEV. In this case, the recovery was performed according to the protocol included in the kit. From 3 mL of each of the culture supernatants, 700 μL of each of fraction recovered liquids in series was obtained. Each of the recovered liquids was used as a sample as it was.

[2] = target: T1, MMP14 in the MDA-MB-231-derived extracellular vesicles (Homo sapiens, UniProt P50281); experiment: Digital detection of MDA-MB-231-derived extracellular vesicles through MMP14 activity in liquid droplets; assay type: biochemical
T1 construct: in terms of intact MMP14 with a molecular weight of 70 kDa
Experimental: The concentration of the solution is 5 μg/mL.
Liquid droplets were prepared by a pumping method of an SPG emulsification membrane through use of the reaction solution for forming liquid droplets prepared in the foregoing. A dispersed phase and a continuous phase are shown below.
An SPG pumping connector (pore diameter: 10 μm, pore diameter: 5 μm, manufactured by SPG Technology Co., Ltd.) was used as the SPG emulsification membrane, and the number of times of pumping reciprocations was set to 10. Thus, liquid droplets each having a diameter of from about 1 μm to about 10 μm were obtained.
The emulsified liquid prepared in the foregoing were subjected to a reaction through incubation at 37° C. to promote the generation of fluorescence.
Next, the images acquired with an SPG pumping connector with a pore diameter of 10 μm were analyzed in the same manner as in Example 19. The above-mentioned fluorescence microscope images after 4 hours of reaction were subjected to predetermined image processing to provide a particle diameter distribution of the liquid droplets shown in FIG. 67, and obtain a histogram representing the number of liquid droplets each showing a fluorescence intensity included in each fraction of fluorescence intensity obtained by dividing fluorescence intensities into intervals of a constant value in each particle diameter range.
Further, when the concentration of the extracellular vesicles having MMP14 activity was calculated through use of the above-mentioned equation (1) from the total number of liquid droplets in each particle diameter range and the number of positive liquid droplets identified from the histogram, the concentration was able to be estimated as described below.

[3] = Example 32, 4 h, droplet diameter 3-4 μm
[4] = Example 32, 4 h, droplet diameter 4-5 μm
[5] = Example 32, 4 h, droplet diameter 5-6 μm
[6] = Example 32, 4 h, droplet diameter 6-7 μm
[7] = Example 32, 4 h, droplet diameter 7-8 μm
[8] = Example 32, 4 h, droplet diameter <3 μm
[9] = Example 32, 4 h, droplet diameter >8 μm

[5-FAM]GRIGFLRTAK(TQ2)[OH] (5FAM-GRIGFLRTAK(TQ2)-OH) [Custom #1]
Fluorescence change ([1]; Culture medium Exo-FBS, HT1080 culture Absent, None (VI)): 50,117 ΔRFU | Fluorescence change ([1]; Culture medium Exo-FBS, HT1080 culture Present, Centrifugation + filtration (V)): 45,429 ΔRFU | Fluorescence change ([1]; Culture medium Exo-FBS, HT1080 culture Present, Only centrifugation (IV)): 46,172 ΔRFU | Fluorescence change ([1]; Culture medium FBS, HT1080 culture Absent, None (III)): 66,945 ΔRFU | Fluorescence change ([1]; Culture medium FBS, HT1080 culture Present, Centrifugation + filtration (II)): 65,200 ΔRFU | Fluorescence change ([1]; Culture medium FBS, HT1080 culture Present, Only centrifugation (I)): 64,773 ΔRFU | Fluorescence change ([1]; Culture medium MEM (×10, supernatant without dilution), HT1080 culture Present, Centrifugation + filtration): 1,515 ΔRFU | Fluorescence change ([1]; Culture medium MEM (×10, supernatant without dilution), HT1080 culture Present, Only centrifugation): 2,494 ΔRFU | Fluorescence change ([1]; Culture medium MEM, HT1080 culture Absent, None (IX)): −311 ΔRFU | Fluorescence change ([1]; Culture medium MEM, HT1080 culture Present, Centrifugation + filtration (VIII)): 186 ΔRFU | Fluorescence change ([1]; Culture medium MEM, HT1080 culture Present, Only centrifugation (VII)): −240 ΔRFU | change in fluorescence intensity after 2 hours ([1]; Example 56, exoEasy recovered liquid from the Exo-FBS): the fluorescence intensity was changed | change in fluorescence intensity after 2 hours ([1]; Example 56, exoEasy recovered liquid from the MEM): no change in fluorescence intensity was recognized | Fluorescence change ([1]; exoEasy recovered liquid, Culture medium Exo-FBS, HT1080 culture Present): 6,663 ΔRFU | Fluorescence change ([1]; exoEasy recovered liquid, Culture medium MEM, HT1080 culture Present): −313 ΔRFU | Fluorescence change ([1]; qEV recovered liquid, Exo-FBS, HT1080 culture Present, Fraction # 1): 336 ΔRFU | Fluorescence change ([1]; qEV recovered liquid, Exo-FBS, HT1080 culture Present, Fraction # 2): 318 ΔRFU | Fluorescence change ([1]; qEV recovered liquid, Exo-FBS, HT1080 culture Present, Fraction # 3): 271 ΔRFU | Fluorescence change ([1]; qEV recovered liquid, Exo-FBS, HT1080 culture Present, Fraction # 4): 285 ΔRFU | Fluorescence change ([1]; qEV recovered liquid, Exo-FBS, HT1080 culture Present, Fraction # 5): 302 ΔRFU | Fluorescence change ([1]; qEV recovered liquid, Exo-FBS, HT1080 culture Present, Fraction # 6): 325 ΔRFU | Fluorescence change ([1]; qEV recovered liquid, Exo-FBS, HT1080 culture Present, Fraction # 7): 1,869 ΔRFU | Fluorescence change ([1]; qEV recovered liquid, Exo-FBS, HT1080 culture Present, Fraction # 8): 7,249 ΔRFU | Fluorescence change ([1]; qEV recovered liquid, Exo-FBS, HT1080 culture Present, Fraction # 9): 9,417 ΔRFU | Fluorescence change ([1]; qEV recovered liquid, Exo-FBS, HT1080 culture Present, Fraction # 10): 17,731 ΔRFU | Fluorescence change ([1]; qEV recovered liquid, Exo-FBS, HT1080 culture Present, Fraction # 11): 30,226 ΔRFU | Fluorescence change ([1]; qEV recovered liquid, Exo-FBS, HT1080 culture Present, Fraction # 12): 44,826 ΔRFU | Fluorescence change ([1]; qEV recovered liquid, Exo-FBS, HT1080 culture Present, Fraction # 13): 61,704 ΔRFU | Fluorescence change ([1]; qEV recovered liquid, Exo-FBS, HT1080 culture Present, Fraction # 14): 76,810 ΔRFU | Fluorescence change ([1]; qEV recovered liquid, MEM, HT1080 culture Present, Fraction # 1): 245 ΔRFU | Fluorescence change ([1]; qEV recovered liquid, MEM, HT1080 culture Present, Fraction # 2): 285 ΔRFU | Fluorescence change ([1]; qEV recovered liquid, MEM, HT1080 culture Present, Fraction # 3): 245 ΔRFU | Fluorescence change ([1]; qEV recovered liquid, MEM, HT1080 culture Present, Fraction # 4): 304 ΔRFU | Fluorescence change ([1]; qEV recovered liquid, MEM, HT1080 culture Present, Fraction # 5): 1,450 ΔRFU | Fluorescence change ([1]; qEV recovered liquid, MEM, HT1080 culture Present, Fraction # 6): 697 ΔRFU | Fluorescence change ([1]; qEV recovered liquid, MEM, HT1080 culture Present, Fraction # 7): 10,198 ΔRFU | Fluorescence change ([1]; qEV recovered liquid, MEM, HT1080 culture Present, Fraction # 8): 11,966 ΔRFU | Fluorescence change ([1]; qEV recovered liquid, MEM, HT1080 culture Present, Fraction # 9): 1,424 ΔRFU | Fluorescence change ([1]; qEV recovered liquid, MEM, HT1080 culture Present, Fraction # 10): 550 ΔRFU | Fluorescence change ([1]; qEV recovered liquid, MEM, HT1080 culture Present, Fraction # 11): 506 ΔRFU | Fluorescence change ([1]; qEV recovered liquid, MEM, HT1080 culture Present, Fraction # 12): 536 ΔRFU | Fluorescence change ([1]; qEV recovered liquid, MEM, HT1080 culture Present, Fraction # 13): 489 ΔRFU | Fluorescence change ([1]; qEV recovered liquid, MEM, HT1080 culture Present, Fraction # 14): 446 ΔRFU | Extracellular vesicle concentration ([2]; Example 32): 1.9×10^9 /μg of protein | Concentration (extracellular vesicles having MMP14 activity) [2, 3]: 1.06e+10 mL⁻¹ | Expected value λ [2, 3]: 0.217 | Number of positives [2, 3]: 15 | Positive ratio [2, 3]: 0.195 | Concentration (extracellular vesicles having MMP14 activity) [2, 4]: 9.05e+09 mL⁻¹ | Expected value λ [2, 4]: 0.416 | Number of positives [2, 4]: 16 | Positive ratio [2, 4]: 0.340 | Concentration (extracellular vesicles having MMP14 activity) [2, 5]: 9.85e+09 mL⁻¹ | Expected value λ [2, 5]: 0.816 | Number of positives [2, 5]: 29 | Positive ratio [2, 5]: 0.558 | Concentration (extracellular vesicles having MMP14 activity) [2, 6]: 9.03e+09 mL⁻¹ | Expected value λ [2, 6]: 1.293 | Number of positives [2, 6]: 37 | Positive ratio [2, 6]: 0.725 | Concentration (extracellular vesicles having MMP14 activity) [2, 7]: 9.01e+09 mL⁻¹ | Expected value λ [2, 7]: 1.910 | Number of positives [2, 7]: 23 | Positive ratio [2, 7]: 0.852 | Concentration (extracellular vesicles having MMP14 activity) [2, 8]: 1.04e+10 mL⁻¹ | Expected value λ [2, 8]: 0.047 | Positive ratio [2, 8]: 0.046 | Concentration (extracellular vesicles having MMP14 activity) [2, 9]: 8.68e+09 mL⁻¹ | Expected value λ [2, 9]: 3.296 | Number of positives [2, 9]: 26 | Positive ratio [2, 9]: 0.963 | Number of positives ([2]; Example 32, SPG pore 10 μm, EV 5 μg/mL, reporter 5 μM, 37° C., 4 h, droplet diameter <3 μm): 8 | average of the extracellular vesicle concentrations ([2]; Example 32, all droplet diameter ranges, reaction solution 5.0 μg of protein/mL): 9.5e+09 mL⁻¹
